In PubChem BioAssay AID1963871 (Molecular Pharmacology Branch, DTP, NCI, 2024):

System: KRAS-mutant PDC multicell tumor spheroid viability
Test: Anticancer human tumor 521955-158-R2-J5-PDC patient-derived pancreatic carcinoma cell line growth inhibition [KRAS2]
Conditions: for IC50: curve of first compound; for viability, T/C: stronger effect = lower value
Method in brief: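 Combination screen of spheroid viability in tumor-cell co-cultures with endothelial (HUVEC) and mesenchymal stem cell stroma. Each agent was tested in half-log dilutions, topping at clinical Cmax or at 10 microM without a known Cmax.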

[1] = second compound 0.0316 µM, first compound 0.0316 µM
[2] = second compound 0.0316 µM, first compound 0.1 µM
[3] = second compound 0.1 µM, first compound 0.0316 µM
[4] = second compound 0.1 µM, first compound 0.1 µM
[5] = second compound 0.316 µM, first compound 0.0316 µM
[6] = second compound 0.316 µM, first compound 0.1 µM
[7] = second compound 1 µM, first compound 0.0316 µM
[8] = second compound 1 µM, first compound 0.1 µM
[9] = second compound 3.16 µM, first compound 0.0316 µM
[10] = second compound 3.16 µM, first compound 0.1 µM
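Also: viability read after seven days of drug exposure.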

Question: How did the IC50 (second compound 0.0316 µM) turn out when `CC(C)n1nc(-c2ccc3oc(N)nc3c2)c2c(N)ncnc21` + C=CC(=O)N1CCN(c2nc(OCC3CCCN3C)nc3c2CCN(c2cccc4cccc(C)c24)C3)CC1CC#N was run?
Answer: 9.53 nM

Question: What about the IC50 (second compound 0.1 µM) of the same compound?
Answer: 6.8 nM

Question: And the IC50 (second compound 0.316 µM)?
Answer: 6.39 nM

Question: What about the IC50 (second compound 1 µM) of the same compound?
Answer: 3.33 nM

Question: And the IC50 (second compound 3.16 µM)?
Answer: < 0.316 nM

Question: What about the viability, T/C (second compound 0.0316 µM, first compound 0.000316 µM) of the same compound?
Answer: 105%

Question: And the viability, T/C (second compound 0.0316 µM, first compound 0.001 µM)?
Answer: 97.1%

Question: What about the viability, T/C (second compound 0.0316 µM, first compound 0.00316 µM) of the same compound?
Answer: 68.1%

Question: What about the viability, T/C (second compound 0.0316 µM, first compound 0.01 µM) of the same compound?
Answer: 49.6%

Question: What about the viability, T/C [1] of the same compound?
Answer: 36.9%

Question: What about the viability, T/C [2] of the same compound?
Answer: 25.6%

Question: And the viability, T/C (second compound 0.1 µM, first compound 0.000316 µM)?
Answer: 94.6%

Question: What about the viability, T/C (second compound 0.1 µM, first compound 0.001 µM) of the same compound?
Answer: 90.7%

Question: What about the viability, T/C (second compound 0.1 µM, first compound 0.00316 µM) of the same compound?
Answer: 62.5%

Question: And the viability, T/C (second compound 0.1 µM, first compound 0.01 µM)?
Answer: 43.6%

Question: What about the viability, T/C [3] of the same compound?
Answer: 31.5%

Question: And the viability, T/C [4]?
Answer: 24.3%

Question: And the viability, T/C (second compound 0.316 µM, first compound 0.000316 µM)?
Answer: 92.6%

Question: What about the viability, T/C (second compound 0.316 µM, first compound 0.001 µM) of the same compound?
Answer: 90.6%

Question: And the viability, T/C (second compound 0.316 µM, first compound 0.00316 µM)?
Answer: 59%

Question: What about the viability, T/C (second compound 0.316 µM, first compound 0.01 µM) of the same compound?
Answer: 44.6%

Question: And the viability, T/C [5]?
Answer: 27%

Question: And the viability, T/C [6]?
Answer: 22.7%

Question: What about the viability, T/C (second compound 1 µM, first compound 0.000316 µM) of the same compound?
Answer: 76.5%

Question: And the viability, T/C (second compound 1 µM, first compound 0.001 µM)?
Answer: 70.2%

Question: And the viability, T/C (second compound 1 µM, first compound 0.00316 µM)?
Answer: 49.1%

Question: And the viability, T/C (second compound 1 µM, first compound 0.01 µM)?
Answer: 33.5%

Question: What about the viability, T/C [7] of the same compound?
Answer: 23.3%

Question: And the viability, T/C [8]?
Answer: 18.3%

Question: And the viability, T/C (second compound 3.16 µM, first compound 0.000316 µM)?
Answer: 33.7%

Question: And the viability, T/C (second compound 3.16 µM, first compound 0.001 µM)?
Answer: 17.6%

Question: And the viability, T/C (second compound 3.16 µM, first compound 0.00316 µM)?
Answer: 25.6%

Question: What about the viability, T/C (second compound 3.16 µM, first compound 0.01 µM) of the same compound?
Answer: 7.26%

Question: And the viability, T/C [9]?
Answer: 17%

Question: And the viability, T/C [10]?
Answer: 14.5%

Question: What does the source list for `COC(=O)c1ccc2c(C(=Nc3ccc(N(C)C(=O)CN4CCN(C)CC4)cc3)c3ccccc3)c(O)[nH]c2c1` + C=CC(=O)N1CCN(c2nc(OCC3CCCN3C)nc3c2CCN(c2cccc4cccc(C)c24)C3)CC1CC#N?
Answer: IC50 (second compound 0.0316 µM): 1160 nM; IC50 (second compound 0.1 µM): 864 nM; IC50 (second compound 0.316 µM): 280 nM; IC50 (second compound 1 µM): < 31.6 nM; IC50 (second compound 3.16 µM): < 31.6 nM; viability, T/C [1]: 78%; viability, T/C [2]: 67.5%; viability, T/C (second compound 0.0316 µM, first compound 0.316 µM): 75.1%; viability, T/C (second compound 0.0316 µM, first compound 1 µM): 55.9%; viability, T/C (second compound 0.0316 µM, first compound 3.16 µM): 9.24%; viability, T/C (second compound 0.0316 µM, first compound 10 µM): 0.33%; viability, T/C [3]: 64.2%; viability, T/C [4]: 69.8%; viability, T/C (second compound 0.1 µM, first compound 0.316 µM): 65.2%; viability, T/C (second compound 0.1 µM, first compound 1 µM): 47.7%; viability, T/C (second compound 0.1 µM, first compound 3.16 µM): 8.93%; viability, T/C (second compound 0.1 µM, first compound 10 µM): 0.33%; viability, T/C [5]: 72.1%; viability, T/C [6]: 69.5%; viability, T/C (second compound 0.316 µM, first compound 0.316 µM): 43.7%; viability, T/C (second compound 0.316 µM, first compound 1 µM): 28.6%; viability, T/C (second compound 0.316 µM, first compound 3.16 µM): 2.62%; viability, T/C (second compound 0.316 µM, first compound 10 µM): 1.9%; viability, T/C [7]: 49.4%; viability, T/C [8]: 50.6%; viability, T/C (second compound 1 µM, first compound 0.316 µM): 37.3%; viability, T/C (second compound 1 µM, first compound 1 µM): 26.4%; viability, T/C (second compound 1 µM, first compound 3.16 µM): 1.74%; viability, T/C (second compound 1 µM, first compound 10 µM): 0.25%; viability, T/C [9]: 1.66%; viability, T/C [10]: 0.72%; viability, T/C (second compound 3.16 µM, first compound 0.316 µM): 0.77%; viability, T/C (second compound 3.16 µM, first compound 1 µM): 0.34%; viability, T/C (second compound 3.16 µM, first compound 3.16 µM): 0.55%; viability, T/C (second compound 3.16 µM, first compound 10 µM): 0.44%
